Measurements reported in US7501398B2, “Inhibitor of the folding of the HIV-1-protease as antiviral agent” (priority 2005, dated 2009).

How the values were obtained:
HIV-1-Protease [1] = target: T1, HIV-1-Protease (Human immunodeficiency virus type 1 group M subtype B, UniProt P04585, C555A/C583A/L521I/L551I/Q495K); assay: biochemical; assay type: biochemical; parameters: Recombinant HIV-1-Protease, expressed in E. Coli; purchased Sigma P7338; host or cells: E. coli; details: for variation in the kinetic parameters with respect to the uninhibited case: control peptides used in the same way as p-S8; for Ki: pH 6, 37 °C
Experimental: Recombinant HIV-1-Protease, expressed in E. Coli (Sigma Cat. no. P7338)contained five mutations to restrict autoproteolysis (Q7K, L33I, […]) and to restrict cysteine thiol oxidation (C67A and C95A). The enzyme was stored at (−70° C. as solution with concentration 25 mg/63 mL in dilute HCl, (pH=1.6)). A chromogenic substrate for HIV-1-PR (Sigma Cat. no. H5535) was obtained as a 1 mg desiccate, diluted with 0.1 ml of DMSO, and stored at −20° C. Protease assisted cleavage between the Nle and the Phe(NO2) residues of substrate entails a blue-shift of the absorption maximum (277 nm to 272 nm). It can be adequately monitored observing the continuous decrease of absorbance at […]. […] Res. Comm 168:274-280.
After that 1 mg of inhibitor peptide was dissolved in […] of DMSO, 4 ml of this solution were then diluted with 16 ml of DMSO and 180 ml of the buffer used for assay.
The buffer was prepared by adding […] NaCl, 1 mM EDTA and 1 mM dithiothreitol to a 20 mM phosphate buffer (pH 6).
The sequences of these control peptides are […] (SEQ ID NO:2) and […] (SEQ ID NO:3) corresponding to fragments 61-70 and 9-19, respectively, of the HIV-1-PR sequence, as well as the […] (SEQ ID NO:4) sequence, which is not related in any way to the protease.
Each measure was performed recording the absorbance at 300 nm (4.13 eV) in a standard UV-vis spectrophotometer (Jasco V-560). […] The sample in the cuvette was exposed to a constant temperature (37±0.05° C.) provided by continuous circulation of water from a water bath to the cell holder via a circulation pump.
After proper thermal stabilization of the substrate dissolved in the buffer (pH 6), the absorbance at 300 nm was recorded. We performed 6 measures spanning a range of substrate concentrations from 50 μM to 250 μM. The reaction was initiated by adding 2.78 μg of enzyme and recording the absorbance decrease at 300 nm for 1200 sec. In all the reported measures the enzyme has thus a nominal concentration of 1.8 μM. Since, to our knowledge, no accurate measure has been published of the dimerization constant of HIV-1-PR at pH=6.0, it is difficult to estimate precisely the active site concentration in our assay.
In all the reported measures the final concentration of inhibitor was [I0]=[…]. The Absorbance decrease at 300 nm was recorded for 1200 sec.

HIV-1-Protease [2] = target: T1, HIV-1-Protease; details: protease:peptide 1:3; protease alone 79%
Experimental: Ultraviolet CD spectra were recorded on a Jasco J-810 spectropolarimeter in nitrogen atmosphere at room temperature using 0.1 cm path-length quartz cell. Each spectrum was recorded between 260-200 nm. The data were collected at a rate of 10 nm/min with a wavelength step of 0.2 nm and a time constant of 2 s. The spectra were corrected with respect to the baseline and normalized to the aminoacidic concentration. The protein and the peptide were dissolved in a 20 mM phosphate buffer with 0.8 M NaCl at the same concentration used for the activity assays. The CD spectra were analyzed in terms of contribution of secondary structure elements using the K2D method based on comparison with CD spectra of proteins and peptides with known secondary structure.
The conformational properties of the inhibited protease have been investigated by means of UV circular dichroism experiments.

[3] = enzyme:peptide 1:3, pH 6, 37 °C

Compound | initial velocity v0 of the reaction in presence of peptide (HIV-1-Protease [1]; [S0]=125 mM (FIG. 7(b))) | variation in the kinetic parameters with respect to the uninhibited case (HIV-1-Protease [1]) | inhibition mechanism (HIV-1-Protease [1]) | Ki (HIV-1-Protease [1]; dissociation constant KI (inhibitor-free enzyme)) | Ki (HIV-1-Protease [1]; dissociation constant K′I (inhibitor-substrate-enzyme complex)) | apparent dissociation constant K′M of the inhibited reaction (HIV-1-Protease [1]; [3]) | maximum velocity vmax of the inhibited reaction (HIV-1-Protease [1]; [3]) | beta-sheet content of protease plus peptide (CD) (HIV-1-Protease [2])
QILIEICGHK (Fragment 61-70 of the HIV-1-PR sequence) [K1, reference compound] | 0.051 µM/s | no appreciable variation | – | – | – | – | – | –
LSQETFDLWKLLPEN (Designed Peptide) [K3, reference compound] | – | no appreciable variation | – | – | – | – | – | –
CC[C@H](C)[C@H](NC(=O)[C@H](CCC(N)=O)NC(=O)[C@@H](NC(=O)[C@H](CC(C)C)NC(=O)[C@H](CC(C)C)NC(=O)[C@H](CC(N)=O)NC(=O)[C@H](CCCNC(=N)N)NC(=O)CNC(=O)[C@@H](NC(=O)[C@@H](NC(=O)[C@H](CC(N)=O)NC(C)=O)[C@@H](C)CC)[C@@H](C)CC)[C@@H](C)O)C(N)=O [p-S8, 83N, 84I, 85I, 86G, 87R, 88N, 89L, 90L, 91T, 92Q, 93I] | – | – | non-competitive | 380 ± 810 nM | 180 ± 234 nM | 332 ± 191 mM | 0.026 ± 0.011 mM/s | 45%
